Data taken from patent US20040053355A1, “Modular approach to on-line synthesis, drug discovery and biochemical transformations using immobilized enzyme reactors” (priority 2000, published 2004).
Where a name gives a salt, the structure may show the parent alone. Read-outs that look alike come from different tables or passages of the source. One block for each molecule: values may come before it.

Experiments:
[1] = target: T1, PNMT-Glut-P stationary phase (PNMT-SP) (Bos taurus, UniProt P10938); assay: PNMT immobilized on Glut-P stationary phase (PNMT-SP), batch assay; format: biochemical, bovine
T1 sequence (P10938 1-283): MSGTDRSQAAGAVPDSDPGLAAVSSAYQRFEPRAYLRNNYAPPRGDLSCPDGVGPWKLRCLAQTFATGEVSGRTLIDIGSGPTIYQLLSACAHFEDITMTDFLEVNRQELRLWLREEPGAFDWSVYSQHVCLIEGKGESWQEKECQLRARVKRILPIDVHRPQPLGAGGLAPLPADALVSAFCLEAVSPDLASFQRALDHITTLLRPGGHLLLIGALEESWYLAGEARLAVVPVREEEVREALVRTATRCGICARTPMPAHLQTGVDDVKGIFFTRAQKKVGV
Method: (§1) The activity of phenylethanolamine N-methyltransferase was assayed as follows: [final concentration] To 500 μL of enzyme solution [163 μg] was added 50 μL S-adenosyl-L-methionine [20 μM] and the solution was vortexed for 1 min. The reaction was started by addition of the 50 μL substrate [1 mM]. The reaction medium was incubated for 10 min at 37° C. in a shaking bath. The resulting solution was centrifuged at 3000×g and the supernatant were directly injected onto the HPLC under the above mentioned conditions.
Immobilization onto the Glut-P Liquid Chromatographic stationary phase was accomplished in the following manner: (1) the stationary phase (10-100 mg) was washed three times with 0.1 M sodium phosphate buffer adjusted to pH 8.30 with 5M NaOH. The washing was carried out by adding 1 ml of buffer to the stationary phase, the suspension was mixed for 1 min, centrifuged at 3000×g for 10 min, and the supernatant decanted. (2) The enzyme solution [98 μg in 0.6 ml sodium phosphate buffer (0.1M, pH 8.30)] was added to the packing material, the mixture was mixed gently for 5 min and then placed in a rotator/stirrer bath for 18 h at ambient temperature. (3) At the end of 18 h, the suspension was centrifuged, the supernatant decanted and the packing material was washed three additional times with buffer. (4) The amount of enzyme immobilized on the packing material was determined by measuring the amount of residual enzyme in the supernatant using the BioRad Protein Assay. The difference in the absorbance reading before immobilization and the combined absorbances of the washings after immobilization determined the amount of enzyme bound on the packing material.

[2] = target: T1, PNMT-Glut-P stationary phase (PNMT-SP); details: Table 7, *Data obtained from reference 14; cited from earlier work
[3] = target: T2, phenylethanolamine N-methyltransferase (PNMT), non-immobilized (Bos taurus, UniProt P10938); assay: Non-immobilized PNMT activity assay, batch incubation with HPLC-fluorescence analysis; format: biochemical, bovine
T2 sequence (P10938 1-283): T1 sequence (P10938 1-283)
Method: A mobile phase consisting of potassium phosphate buffer (50 mM) adjusted to pH 2.0 with trifluoroacetic acid was utilized to achieve the desired chromatographic separation of the products from the substrates. The solutes were quantitated using fluorescence detection with excitation at λ=266 nm and emission at λ=380 nm. A flow rate of 0.7 ml/min and ambient temperature were used throughout the study.
as §1

[4] = target: T3, PNMT-IMER (immobilized phenylethanolamine N-methyltransferase) (Bos taurus, UniProt P10938); assay: On-line PNMT immobilized enzyme reactor (PNMT-IMER) HPLC system; format: biochemical, bovine; details: for IC50: n = 2, read-out: IC 50 PNMT-IMER
T3 sequence (P10938 1-283): T1 sequence (P10938 1-283)
Description: PNMT immobilized on the Glut-P stationary phase was packed into a lcm×10 mm guard (Regis Technologies). The guard was put into a holder and the column was placed onto the chromatographic system. The PNMT-IMER was washed with phosphate buffer [0.1M, pH 8.3]. The eluent was collected in order to determine if any of the enzyme was being washed off the column. The Biorad assay was utilized to measure the amount of non-immobilized enzyme. When the column was not in use it was washed with phosphate buffer [0.1M, pH 8.3] and stored at 4° C.
The pump on system 2 is stopped. 100 μl of a substrate/cofactor mixture is loaded into the injector (i) and the value is switched to the inject position at the same time the switching valve (SV) is switched such that the substrate/product are eluted from the PNMT-IMER and concentrated onto the analytical columns of System 2 for the specified contact time. When the specific contact time elapses the SV is switched back to the original position and the pump on system 2 is started. The unreacted substrate and product formed are separated on the coupled analytical columns.
The enzymatic activity on the PNMT-IMER was determined by quantification of the amount of product formed with a given substrate. The temperature of the PNMT-IMER unless otherwise stated was kept at 37° C. with a column heater. Stock solutions of normetanephrine were prepared in water. The substrate concentrations examined ranged from 0.15-10 mM and that of the cofactor, S-adenosyl-L-methionine, ranged from 5-100 μM.
Enzymatic activity was examined carrying out injections of a series of substrate/cofactor mixtures. The mixtures were injected onto the IMER at a flow rate of 0.2 ml/min for a contact time of 20 min. The kinetic parameters were determined by drawing Lineweaver-Burke plots utilizing Microsoft Excel. Results are expressed as mean±standard error of the mean (SEM).
The effect of known inhibitors, S-adenosylhomocysteine and methyldopa on the enzymatic activity of the PNMT-IMER was also examined. The inhibition of the PNMT-IMER was carried out using injections of a series of substrate/cofactor/inhibitor mixtures.

[5] = non-immobilized PNMT, read-out: Ki PNMT
[6] = immobilized PNMT, read-out: Ki PNMT-SP
[7] = 0.2 ml/min, contact time 20 min, 37° C., n = 2

Km ([3]; non-immobilized PNMT): 14.2 µM
Vmax ([3]; non-immobilized PNMT): 1.249 µmol/mg/min
Km ([1]; PNMT-SP, Table 5): 10.6 µM
Vmax ([1]; PNMT-SP, Table 5): 0.654 µmol/mg/min
Km [4, 7]: 7.31 µM
Vmax [4, 7]: 0.424 µmol/mg/min
Molecule: C[S+](CC[C@H](N)C(=O)O)C[C@H]1O[C@@H](n2cnc3c(N)ncnc32)[C@H](O)[C@@H]1O (stereo partly drawn) [SAM, S-adenosyl-L-methionine]
Km [2]: 10.6 µM
Vmax [2]: 0.254 µmol/mg/min

IC50 ([3]; non-immobilized PNMT, n = 2, read-out: IC 50 PNMT): 10.4 µM
concentration as low as which the PNMT-IMER is inhibited [4]: 1 µM
IC50 [4]: 7.6 ± 0.2 µM
Molecule: methyl-dopa

Further lines, the molecule ahead of its results:

Molecule: COc1cc(C(O)CN)ccc1O (racemic) [Normetanephrine, DL-normetanephrine hydrochloride]
Vmax ([1]; PNMT-SP, Table 5): 0.823 µmol/mg/min
Km [2]: 152 µM
Vmax [2]: 0.823 µmol/mg/min

Molecule: Cl.NCc1ccccc1 [Benzylamine, benzylamine hydrochloride]
concentration as low as which the enzyme is inhibited ([3]; non-immobilized PNMT): 100 µM
Ki [3, 5]: 220 ± 110 µM
inhibition of PNMT activity, immobilized PNMT compared to the non-immobilized PNMT ([1]; FIG. 8): three times higher
concentration as low as which the enzyme is inhibited ([1]; immobilized PNMT): 100 µM
Ki [1, 6]: 690 ± 100 µM

Molecule: CCN1C(=O)C=CC1=O [N-ethylmaleimide]
Ki [3, 5]: 1.04 ± 0.49 µM
Ki [1, 6]: 4.92 ± 0.16 µM

Molecule: Nc1ncnc2c1ncn2[C@@H]1O[C@H](CSCC[C@H](N)C(=O)O)[C@@H](O)[C@H]1O [SAH, S-adenosyl-L-homocysteine]
IC50 [3]: 40.1 µM
concentration as low as which the PNMT-IMER is inhibited [4]: 5 µM
IC50 [4]: 50.5 ± 1.5 µM

Molecule: O=S(=O)(O)c1cc[c]([Hg][Cl])cc1 [p-chloromercuriphenylsulfonic acid, p-chloromercuriphenylsulfonic acid monosodium salt]
Ki [3]: 120 ± 140 µM
Ki [1]: 520 ± 190 µM
